# Measured values taken from ChEMBL document CHEMBL5380791, “Modular Biomimetic Strategy Enabled Discovery of Simplified Pseudo-Natural Macrocyclic P-Glycoprotein Inhibitors Capable of Overcoming Multidrug Resistance” (J Med Chem, 2023).
# pIC50: −log10 of the molar value. Calls of active or inactive are those of the source. The calls are words filed in the database; no cut-off is given here.
# What was measured:
# [1] = AUClast in CD-1 mouse at 25 mg/kg, ip; format: ADME, organism-based; set-up: dose 25 mg/kg, route ip; details: in vivo
# KBv200 [2] = assay: Antitumor activity against human KBv200 cells xenografted in Balb/cA nude mouse assessed as mean tumor volume at 75 mg/kg, ip administered as single dose and measured on day 0; format: functional
# [3] = Tmax in CD-1 mouse at 30 mg/kg, po; format: ADME, organism-based; details: in vivo
# NCI/ADR-RES = assay: Reversal of vinorelbine resistance in human NCI/ADR-RES cells assessed as reduction in cell viability incubated for 72 hrs in presence of vinorelbine (reference value: 6125.7+/-3267.7 nM); format: functional, cell-based
# [4] = Toxicity in Balb/cA nude mouse xenografted with human KBv200 cells assessed as changes in body weight at 75 mg/kg, ip qd administered for 13 days in presence of vinorelbine; format: organism-based; details: in vivo, 312 h, time 13 day
# KBv200 [5] = assay: Antitumor activity against human KBv200 cells xenografted in Balb/cA nude mouse assessed as mean tumor volume at 75 mg/kg, ip administered as single dose and measured on day 0 in presence of vinorelbine; format: functional
# KBv200 [6] = assay: Induction of apoptosis in human KBv200 cells assessed as increase in cleaved PARP level at 5 uM incubated for 24 hrs in presence of vinorelbine by Western blotting analysis; format: functional, cell-based
# [7] = AUCinf in CD-1 mouse at 3 mg/kg, iv; format: ADME, organism-based; set-up: dose 3 mg/kg, route iv; details: in vivo
# [8] = Half life in CD-1 mouse at 25 mg/kg, ip; format: ADME, organism-based; details: in vivo
# [9] = Cytotoxicity against human L02 cells assessed as reduction in cell viability incubated for 48 hrs by CCK-8 assay; format: toxicity, cell-based
# KBv200 [10] = assay: Antitumor activity against human KBv200 cells xenografted in Balb/cA nude mouse assessed as tumor growth inhibition at 75 mg/kg, ip qd administered for 13 days; format: functional; details: KBv200, 312 h, time 13 day
# KB = assay: Reversal of vinorelbine resistance in human KB cells assessed as reduction in cell viability incubated for 72 hrs in presence of vinorelbine (reference value: 7.4+/-2.2 nM); format: functional, cell-based
# [11] = molecular target: ATP-dependent translocase ABCB1 (Homo sapiens, UniProt P08183); assay: Inhibition of P-gp in human KBv200 cells assessed as induction of conformation change by measuring increase in UIC-2 binding level at 50 uM incubated for 10 mins by UIC-2 reactivity shift assay; format: cell-based; details: kbv200, 10 min
# [12] = AUCinf in CD-1 mouse at 30 mg/kg, po; format: ADME, organism-based; set-up: dose 30 mg/kg, route po; details: in vivo
# K562 = assay: Reversal of vinorelbine resistance in human K562 cells assessed as reduction in cell viability incubated for 72 hrs in presence of vinorelbine (reference value: 5.9+/-0.2 nM); format: functional, cell-based; details: K562, 72 h
# KBv200 [13] = assay: Downregulation of P-gp mRNA expression level in human KBV200 cells by qRT-PCR analysis; format: functional, cell-based
# KBv200 [14] = assay: Antitumor activity against human KBv200 cells xenografted in Balb/cA nude mouse assessed as mean tumor volume at 75 mg/kg, ip qd administered for 13 days; format: functional; details: time 13 day
# KBv200 [15] = assay: Antitumor activity against human KBv200 cells xenografted in Balb/cA nude mouse assessed as T/C ratio at 75 mg/kg, ip qd administered for 13 days in presence of vinorelbine; format: functional; details: time 13 day
# [16] = Cmax in CD-1 mouse at 25 mg/kg, ip; format: ADME, organism-based; set-up: dose 25 mg/kg, route ip; details: in vivo
# KBv200 [17] = assay: Reversal of paclitaxel resistance in human KBv200 cells assessed as reduction in cell viability incubated for 72 hrs in presence of paclitaxel (reference value: 392.9+/-196.5 nM); format: functional, cell-based; details: KBv200, 72 h
# [18] = Bioavailability in CD-1 mouse at 25 mg/kg, ip; format: ADME, organism-based; details: in vivo
# KBv200 [19] = assay: Antitumor activity against human KBv200 cells xenografted in Balb/cA nude mouse assessed as T/C ratio at 75 mg/kg, ip qd administered for 13 days; format: functional; details: time 13 day
# [20] = Half life in CD-1 mouse at 3 mg/kg, iv; format: ADME, organism-based; details: in vivo
# [21] = Half life in CD-1 mouse at 30 mg/kg, po; format: ADME, organism-based; details: in vivo
# [22] = Tmax in CD-1 mouse at 25 mg/kg, ip; format: ADME, organism-based; details: in vivo
# [23] = Toxicity in Balb/cA nude mouse xenografted with human KBv200 cells assessed as mortality at 75 mg/kg, ip qd administered for 13 days in presence of vinorelbine; format: organism-based; details: in vivo, 312 h, time 13 day
# [24] = Toxicity in Balb/cA nude mouse xenografted with human KBv200 cells assessed as changes in body weight at 75 mg/kg, ip qd administered for 13 days; format: organism-based; details: in vivo, 312 h, time 13 day
# OVCAR-8 = assay: Reversal of vinorelbine resistance in human OVCAR-8 cells assessed as reduction in cell viability incubated for 72 hrs in presence of vinorelbine (reference value: 16.2+/-4.7 nM); format: functional, cell-based; details: OVCAR-8, 72 h
# [25] = Toxicity in Balb/cA nude mouse xenografted with human KBv200 cells assessed as mortality at 75 mg/kg, ip qd administered for 13 days; format: organism-based; details: in vivo, 312 h, time 13 day
# KBv200 [26] = assay: Antitumor activity against human KBv200 cells xenografted in Balb/cA nude mouse assessed as mean tumor volume at 75 mg/kg, ip qd administered for 13 days in presence of vinorelbine; format: functional; details: time 13 day
# KBv200 [27] = assay: Reversal of vinorelbine resistance in human KBv200 cells assessed as reduction in cell viability incubated for 72 hrs in presence of vinorelbine (reference value: 224 to 228.30 nM); format: functional, cell-based; details: KBv200, 72 h, read-out: IC50
# KBv200 [28] = assay: Induction of apoptosis in human KBv200 cells assessed as increase in cleaved caspase 3 level at 5 uM incubated for 24 hrs by Western blotting analysis; format: functional, cell-based
# [29] = AUClast in CD-1 mouse at 3 mg/kg, iv; format: ADME, organism-based; set-up: dose 3 mg/kg, route iv; details: in vivo
# [30] = AUClast in CD-1 mouse at 30 mg/kg, po; format: ADME, organism-based; set-up: dose 30 mg/kg, route po; details: in vivo
# KBv200 [31] = assay: Induction of apoptosis in human KBv200 cells assessed as increase in cleaved caspase 3 level at 5 uM incubated for 24 hrs in presence of vinorelbine by Western blotting analysis; format: functional, cell-based
# [32] = Clearance in CD-1 mouse at 3 mg/kg, iv; format: ADME, organism-based; details: in vivo
# K562/Adr = assay: Reversal of vinorelbine resistance in human K562/Adr cells assessed as reduction in cell viability incubated for 72 hrs in presence of vinorelbine (reference value: 7320.6+/-2115.2 nM); format: functional, cell-based
# KBv200 [33] = assay: Antitumor activity against human KBv200 cells xenografted in Balb/cA nude mouse assessed as tumor growth inhibition at 75 mg/kg, ip qd administered for 13 days in presence of vinorelbine; format: functional; details: KBv200, 312 h, time 13 day
# KBv200 [34] = assay: Reversal fold, ratio of vinorelbine IC50 for cytotoxicity against human KBv200 cells over test compound IC50 for reversal of vinorelbine resistance in human KBv200 cells; format: functional
# KBv200 [35] = assay: Induction of apoptosis in human KBv200 cells assessed as increase in cleaved PARP level at 5 uM incubated for 24 hrs by Western blotting analysis; format: functional, cell-based
# KBv200 [36] = assay: Reversal of adriamycin resistance in human KBv200 cells assessed as reduction in cell viability incubated for 72 hrs in presence of adriamycin (reference value: 1291.2+/-308.9 nM); format: functional, cell-based; details: KBv200, 72 h
# [37] = Oral bioavailability in CD-1 mouse at 30 mg/kg; format: ADME, organism-based; details: in vivo
# [38] = Cytotoxicity against human HEK293T cells assessed as reduction in cell viability incubated for 48 hrs by CCK-8 assay; format: toxicity, cell-based, HEK-293T
# [39] = AUCinf in CD-1 mouse at 25 mg/kg, ip; format: ADME, organism-based; set-up: dose 25 mg/kg, route ip; details: in vivo
# KBv200 [40] = assay: Induction of apoptosis in human KBv200 cells assessed as increase in cleaved caspase 9 level at 5 uM incubated for 24 hrs in presence of vinorelbine by Western blotting analysis; format: functional, cell-based
# [41] = Cmax in CD-1 mouse at 30 mg/kg, po; format: ADME, organism-based; set-up: dose 30 mg/kg, route po; details: in vivo
# KBv200 [42] = assay: Induction of apoptosis in human KBv200 cells assessed as increase in cleaved caspase 9 level at 5 uM incubated for 24 hrs by Western blotting analysis; format: functional, cell-based
# Chain of ATP-dependent translocase ABCB1 (P08183 whole entry): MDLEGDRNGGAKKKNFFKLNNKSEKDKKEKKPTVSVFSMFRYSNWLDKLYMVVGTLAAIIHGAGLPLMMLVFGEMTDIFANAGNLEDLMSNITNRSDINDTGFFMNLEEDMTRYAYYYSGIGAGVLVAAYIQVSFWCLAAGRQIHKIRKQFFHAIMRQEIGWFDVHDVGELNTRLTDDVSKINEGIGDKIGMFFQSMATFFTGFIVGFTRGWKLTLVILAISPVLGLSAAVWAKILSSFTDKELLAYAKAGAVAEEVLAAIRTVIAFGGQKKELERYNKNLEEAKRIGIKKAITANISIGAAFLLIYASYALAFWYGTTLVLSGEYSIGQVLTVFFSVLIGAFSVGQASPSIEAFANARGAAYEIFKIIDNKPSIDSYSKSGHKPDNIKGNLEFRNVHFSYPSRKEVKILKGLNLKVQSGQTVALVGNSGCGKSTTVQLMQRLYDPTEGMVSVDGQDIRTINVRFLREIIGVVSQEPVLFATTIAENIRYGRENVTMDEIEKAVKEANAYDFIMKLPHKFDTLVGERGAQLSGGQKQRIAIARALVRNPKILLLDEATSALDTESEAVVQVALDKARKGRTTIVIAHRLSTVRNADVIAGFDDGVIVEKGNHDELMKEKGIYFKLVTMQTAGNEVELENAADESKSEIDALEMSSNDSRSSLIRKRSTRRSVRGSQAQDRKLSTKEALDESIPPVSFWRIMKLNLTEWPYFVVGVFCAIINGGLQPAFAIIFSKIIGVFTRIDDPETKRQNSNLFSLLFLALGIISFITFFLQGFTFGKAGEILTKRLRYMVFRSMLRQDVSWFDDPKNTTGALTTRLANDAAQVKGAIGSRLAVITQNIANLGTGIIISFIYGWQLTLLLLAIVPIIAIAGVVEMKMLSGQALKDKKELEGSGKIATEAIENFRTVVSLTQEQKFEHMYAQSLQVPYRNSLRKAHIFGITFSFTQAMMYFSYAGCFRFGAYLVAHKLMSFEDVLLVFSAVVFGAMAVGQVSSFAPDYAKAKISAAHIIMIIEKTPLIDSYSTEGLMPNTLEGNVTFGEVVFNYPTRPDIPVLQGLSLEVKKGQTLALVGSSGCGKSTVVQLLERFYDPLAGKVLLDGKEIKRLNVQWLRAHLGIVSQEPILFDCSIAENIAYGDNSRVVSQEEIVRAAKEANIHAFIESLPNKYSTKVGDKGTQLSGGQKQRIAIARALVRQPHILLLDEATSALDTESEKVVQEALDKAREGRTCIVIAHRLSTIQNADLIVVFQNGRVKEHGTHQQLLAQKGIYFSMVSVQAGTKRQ
smiles,measurement,setting,value
CC(C)[C@H]1NC(=O)/C(c2ccccc2)=C\C=C(\c2ccccc2)CNC(=O)CCCCCCCCCCCNC1=O,AUC(0-t),[1],4400 ng·h/mL
same,Activity,KBv200 [2],121 mm3
same,Tmax,[3],0.25 h
same,pIC50,NCI/ADR-RES,6.21
same,Activity,[4],Non-Toxic
same,Activity,KBv200 [5],121.5 mm3
same,Activity,KBv200 [6],Active
same,AUC(0-inf),[7],888 ng·h/mL
same,half-life,[8],11.2 h
same,IC50 at 48 h,[9],> 100000 nM
same,inhibition in vivo at 75 mg/kg,KBv200 [10],-13%
same,pIC50,KB,8.66
same,Activity,[11],Active
same,AUC(0-inf),[12],2200 ng·h/mL
same,pIC50,K562,8.85
same,Activity,KBv200 [13],inactive
same,Activity,KBv200 [14],2318.6 mm3
same,T/C,KBv200 [15],52%
same,Cmax,[16],2390 ng/mL
same,pIC50,KBv200 [17],8.10
same,bioavailability,[18],59.5%
same,T/C,KBv200 [19],113%
same,half-life,[20],1.23 h
same,half-life,[21],1.24 h
same,Tmax,[22],7.2 min
same,Activity,[23],Non-Toxic
same,Activity,[24],Non-Toxic
same,pIC50,OVCAR-8,8.17
same,Activity,[25],Non-Toxic
same,Activity,KBv200 [26],1132.6 mm3
same,pIC50,KBv200 [27],9.13
same,Activity,KBv200 [28],inactive
same,AUC(0-t),[29],887 ng·h/mL
same,AUC(0-t),[30],2190 ng·h/mL
same,Activity,KBv200 [31],Active
same,clearance,[32],58.2 mL/min/kg
same,pIC50,K562/Adr,5.92
same,inhibition in vivo at 75 mg/kg,KBv200 [33],48%
same,Ratio IC50,KBv200 [34],386
same,Activity,KBv200 [35],inactive
same,pIC50,KBv200 [36],6.97
same,bioavailability,[37],24.7%
same,IC50 at 48 h,[38],> 100000 nM
same,AUC(0-inf),[39],5100 ng·h/mL
same,Activity,KBv200 [40],Active
same,Cmax,[41],1380 ng/mL
same,Activity,KBv200 [42],inactive
